Data on two substances can be found in patent US8680065B2, “Oligonucleotides of human endogenous retrovirus 9 (ERV-9) long terminal repeat (LTR) and methods of use” (The United States of America, as represented by the …, priority 2008, dated 2014).

In data set [1] the test system is MDA-231 cells (a breast cancer cell line). The experiment in a line: Cancer cell proliferation, oligonucleotide in LIPOFECTAMINE, 48 hours, direct cell counting. The format is cell-based, human. The note with it: oligonucleotide 10, 20 or 30 μg/ml, P<0.05.
The test system of data set [2] is K562 cells (a myelogenous leukemia cell line). The data set is described as above. The format is cell-based, human. As to conditions: P<0.05. The procedure:
FIG. 3 is a graph showing the effect of sense and antisense ERV-9 U3 oligonucleotides (SEQ ID NOs: 1 and 2, respectively) on proliferation of K562 cells (a myelogenous leukemia cell line). Cells (4×10^4) were treated with ERV-9 U3 sense or antisense oligonucleotide formulated in LIPOFECTAMINE™ at the concentrations shown for 48 hours.
(§1) To test the effect of the sense and antisense ERV-9 U3 oligonucleotides on proliferation of cancer cells, six different cancer cell lines were selected for transfection studies: HT1080, fibrosarcoma cells (FIG. 1); MDA-231, breast cancer cells (FIG. 2); K562, myelogenous leukemia cells (FIG. 3); LNcaP, prostate cancer cells (FIG. 4); HepG2, hepatocellular carcinoma cells (FIG. 5); and MCF-7, breast cancer cells (FIG. 6). Cells (4×10^4) were treated with ERV-9 U3 sense or antisense oligonucleotide formulated in LIPOFECTAMINE™ at an oligonucleotide concentration of 10, 20 or 30 μg/ml for 48 hours. Green fluorescent protein (GFP) sense oligonucleotide ([…]; SEQ ID NO: 3) was used as a control to measure the non-specific cytotoxicity of phosphorothioate-based oligonucleotides. Antisense oligonucleotides specific for Bcl-2 (G3139; TCTCCCAGCGTGCGCCAT; SEQ ID NO: 4), telomerase (GRN163; TAGGGTTAGACAA; SEQ ID NO: 5), and MDM2 ([…]; SEQ ID NO: 6) were also evaluated. […] After 48 hours of oligonucleotide treatment, cell proliferation was assessed by direct cell counting. Cell proliferation levels were expressed relative to cells transfected with 10 μg/ml GFP control oligonucleotide.

For data set [3], the system named is LNcaP cells (a prostate cancer cell line). Described as above. The format is cell-based, human. The note with it: oligonucleotide 10, 20 or 30 μg/ml.
Data set [4] relates to HepG2 cells (a hepatocellular carcinoma cell line). The description is as above. The note with it: oligonucleotide 10, 20 or 30 μg/ml, P<0.05. The class given is cell-based, human. Here is the method:
FIG. 5 is a graph showing the effect of sense and antisense ERV-9 U3 oligonucleotides (SEQ ID NOs: 1 and 2, respectively) on proliferation of HepG2 cells (a hepatocellular carcinoma cell line). Cells (4×10^4) were treated with ERV-9 U3 sense or antisense oligonucleotide formulated in LIPOFECTAMINE™ at the concentrations shown for 48 hours.
To test the effect of the sense and antisense ERV-9 U3 oligonucleotides on proliferation of cancer cells, six different cancer cell lines were selected for transfection studies: HT1080, fibrosarcoma cells (FIG. 1); MDA-231, breast cancer cells (FIG. 2); K562, myelogenous leukemia cells (FIG. 3); LNcaP, prostate cancer cells (FIG. 4); HepG2, hepatocellular carcinoma cells (FIG. 5); and MCF-7, breast cancer cells (FIG. 6). Cells (4×10^4) were treated with ERV-9 U3 sense or antisense oligonucleotide formulated in LIPOFECTAMINE™ at an oligonucleotide concentration of 10, 20 or 30 μg/ml for 48 hours. […] Antisense oligonucleotides specific for Bcl-2 (G3139; TCTCCCAGCGTGCGCCAT; SEQ ID NO: 4), telomerase (GRN163; TAGGGTTAGACAA; SEQ ID NO: 5), and MDM2 ([…]; SEQ ID NO: 6) were also evaluated. […] After 48 hours of oligonucleotide treatment, cell proliferation was assessed by direct cell counting. […]

Data set [5] has as its system MCF-7 cells (a breast cancer cell line). Described as above. The class given is cell-based, human. The note with it: P<0.05; for cell proliferation compared with G3139, GRN163 and MDM2 antisense oligonucleotides: oligonucleotide 30 μg/ml; for cell proliferation relative to GFP oligonucleotide: oligonucleotide 10, 20 or 30 μg/ml. The procedure: FIG. 6 is a graph showing the effect of sense and antisense ERV-9 U3 oligonucleotides (SEQ ID NOs: 1 and 2, respectively) on proliferation of MCF-7 cells (a breast cancer cell line). Cells (4×10^4) were treated with ERV-9 U3 sense or antisense oligonucleotide formulated in LIPOFECTAMINE™ at the concentrations shown for 48 hours.
as §1

For data set [6], the system named is HT1080, MDA-231, K562, LNcaP, HepG2 and MCF-7 cancer cell lines. As to the kind of experiment: Cancer cell proliferation, Example 1, summary over six cancer cell lines. The format is cell-based, human. The note with it: for proliferation relative to GFP control oligonucleotide: each of six cancer cell lines, 10, 20 or 30 μg/ml, 48 hours; for proliferation compared with Bcl-2, telomerase and MDM2-specific antisense oligonucleotides: six cancer cell lines, in most instances. The procedure:
as §1

A further data set concerns HepG2 cells. The experiment in a line: Cancer cell proliferation, oligonucleotide in combination with VP16, 48 hours. The class given is cell-based, human. The note with it: oligonucleotide 15 μg/ml with VP16 30 ng/ml and 50 ng/ml, P<0.05. Here is the method:
FIG. 11 is a graph showing proliferation of HepG2 cells treated with ERV-9 U3 sense or antisense oligonucleotide (SEQ ID NOs: 1 and 2, respectively), in combination with VP16. Cells (4×10^4) were treated with oligonucleotide (15 μg/ml) alone or in combination with the concentrations of VP16 shown for 48 hours.
(§2) To test the effect of treating cancer cells with the combination of ERV-9 U3 oligonucleotide and VP16, six different cancer cell lines were analyzed: HT1080, (FIG. 7); MDA-231 (FIG. 8); K562 (FIG. 9); LNcaP (FIG. 10); HepG2 (FIG. 11); and MCF-7 (FIG. 12). Cells (4×10^4) were treated with 15 μg/ml ERV-9 U3 sense (SEQ ID NO: 1) or antisense (SEQ ID NO: 2) oligonucleotide alone or in combination with VP16 at a concentration of 30 ng/ml or 50 ng/ml. After 48 hours, cell proliferation was assessed by direct cell counting. Cell proliferation levels were expressed relative to GFP oligonucleotide control in the absence of VP16.

For data set [7], the system named is HT1080, MDA-231, K562, LNcaP, HepG2 and MCF-7 cancer cell lines. The experiment in a line: Cancer cell proliferation, Example 2, summary over six cancer cell lines, alone or with VP16. The format is cell-based, human. The note with it: for proliferation relative to GFP control oligonucleotide: each of six cancer cell lines, oligonucleotide 15 μg/ml, 48 hours; for proliferation compared with Bcl-2, telomerase and MDM2-specific antisense oligonucleotides: six cancer cell lines, alone or with VP16, in most instances. Here is the method: as §2

Data set [8] concerns human primary lymphocytes. As to the kind of experiment: Proliferation of normal human primary cells, 48 hours. The class given is cell-based. As to conditions: 20 μg/ml, P>0.05. The procedure:
FIG. 14 is a graph showing the effect of ERV-9 U3 sense and antisense oligonucleotides (SEQ ID NOs: 1 and 2, respectively) on human primary lymphocytes. Cells (4×10^4) were transfected with ERV-9 U3 sense or antisense oligonucleotide formulated in LIPOFECTAMINE™ at a concentration of 20 μg/ml for 48 hours.
(§3) To determine whether the inhibitory effect of ERV-9 U3 oligonucleotides is specific to cancer cells, human primary keratinocytes (FIG. 13), lymphocytes (FIG. 14), or monocytes (FIG. 15) were treated with ERV-9 U3 sense or antisense oligonucleotide and cell proliferation was evaluated. Cells (4×10^4) were transfected with ERV-9 U3 sense or antisense oligonucleotide (SEQ ID NOs: 1 and 2, respectively) formulated in LIPOFECTAMINE™ at a concentration of 20 μg/ml. GFP oligonucleotide was used as non-specific phosphorothioate oligonucleotide control. After 48 hours, cell proliferation was assessed by direct cell counting. Cell proliferation levels were expressed relative to GFP control.

Data set [9] has as its system human primary cells (keratinocytes, lymphocytes, monocytes). As to the kind of experiment: Proliferation of normal human primary cells, Example 3, summary. The format is cell-based. The note with it: 20 μg/ml, 48 hours. The procedure: as §3
[10] abbreviates: oligonucleotide 10 μg/ml and 20 μg/ml.

With “U3AS: ERV-9 LTR U3 antisense oligonucleotide CTGATTGGTGTGTTTACAAACCTTGAG, phosphorothioate internucleoside linkages at each position (all phosphorothioate, sugars by position and methylation of C not given here) [Oligo U3AS]”, the “cell proliferation relative to GFP oligonucleotide” value in data set [1] is “inhibited cell proliferation better than GFP control oligonucleotide at all three oligonucleotide concentrations”; in [2] (setting [10]), “inhibited cell proliferation better than GFP control oligonucleotide”; in data set [2] (oligonucleotide 30 μg/ml) it was “inhibited proliferation better than GFP control and G3139, GRN163 and MDM2 antisense oligonucleotides”; in [3] it was “inhibited cell proliferation better than GFP control oligonucleotide at all three oligonucleotide concentrations”; in data set [4], “inhibited cell proliferation better than GFP control and G3139, GRN163 and MDM2 antisense oligonucleotides at all three concentration levels”; in data set [5], “inhibited cell proliferation better than GFP control oligonucleotide at all three concentrations”. In addition, the “cell proliferation compared with G3139, GRN163 and MDM2 antisense oligonucleotides” value in data set [5] is “inhibited proliferation better than G3139, GRN163 and MDM2 antisense oligonucleotides”. Besides, the “proliferation relative to GFP control oligonucleotide” value in data set [6] was “resulted in a significant decrease in proliferation of each cancer cell line tested, relative to GFP control oligonucleotide”; in data set [7], “resulted in a significant decrease in proliferation of each cancer cell line tested, relative to GFP control oligonucleotide”. The “proliferation compared with Bcl-2, telomerase and MDM2-specific antisense oligonucleotides” value in [6] was “inhibited proliferation to a greater extent than the Bcl-2, telomerase and MDM2-specific antisense oligonucleotides”; in data set [7], “inhibited proliferation to a greater extent than the Bcl-2, telomerase and MDM2-specific antisense oligonucleotides, either alone or in combination with VP16”. The “tumor cell proliferation, antisense relative to sense oligonucleotide” value in data set [6] (tumor cells) is “more potently inhibited tumor cell proliferation (relative to the sense oligonucleotide)”. In addition, the “cell proliferation relative to GFP oligonucleotide control” value in the data set with HepG2 cells is “inhibited cell proliferation better than GFP control and G3139, GRN163 and MDM2 antisense oligonucleotides”. Also, the “cell proliferation relative to control GFP oligonucleotide” value in data set [8] is “did not inhibit cell proliferation relative to control GFP oligonucleotide”. Moreover, the “cell proliferation of human primary cells relative to control GFP oligonucleotide” value in [9] was “neither U3 sense nor antisense oligonucleotides had an effect on the proliferation of human primary cells”; in data set [9] (listed as ERV-9 U3 antisense oligonucleotide), “did not significantly alter cell proliferation of human primary cells, relative to control GFP oligonucleotide”.

In the case of “U3S: ERV-9 LTR U3 sense oligonucleotide CTCAAGGTTTGTAAACACACCAATCAG, phosphorothioate internucleoside linkages at each position (all phosphorothioate, sugars by position and methylation of C not given here) [Oligo U3S]”, the “cell proliferation relative to GFP oligonucleotide” value was “inhibited cell proliferation better than GFP control oligonucleotide at all three oligonucleotide concentrations” in data set [1]; “inhibited cell proliferation better than GFP control oligonucleotide” in data set [2] (setting [10]); “inhibited proliferation better than GFP control and G3139, GRN163 and MDM2 antisense oligonucleotides” in [2] (oligonucleotide 30 μg/ml); “inhibited cell proliferation better than GFP control oligonucleotide at all three oligonucleotide concentrations” in [3]; “inhibited cell proliferation better than GFP control and G3139, GRN163 and MDM2 antisense oligonucleotides at all three concentration levels” in [4]; “inhibited cell proliferation better than GFP control oligonucleotide at all three concentrations” in [5]. In addition, the “cell proliferation compared with G3139, GRN163 and MDM2 antisense oligonucleotides” value in data set [5] is “inhibited proliferation better than G3139, GRN163 and MDM2 antisense oligonucleotides”. In addition, the “proliferation relative to GFP control oligonucleotide” value was “resulted in a significant decrease in proliferation of each cancer cell line tested, relative to GFP control oligonucleotide” in [6] and “resulted in a significant decrease in proliferation of each cancer cell line tested, relative to GFP control oligonucleotide” in data set [7]. In addition, the “proliferation compared with Bcl-2, telomerase and MDM2-specific antisense oligonucleotides” value in data set [6] is “inhibited proliferation to a greater extent than the Bcl-2, telomerase and MDM2-specific antisense oligonucleotides”; in data set [7] it was “inhibited proliferation to a greater extent than the Bcl-2, telomerase and MDM2-specific antisense oligonucleotides, either alone or in combination with VP16”. The “cell proliferation relative to GFP oligonucleotide control” value in the data set on HepG2 cells is “inhibited cell proliferation better than GFP control and G3139, GRN163 and MDM2 antisense oligonucleotides”. For the same substance, the “cell proliferation relative to control GFP oligonucleotide” value in data set [8] is recorded as “did not inhibit cell proliferation relative to control GFP oligonucleotide”. In addition, the “cell proliferation of human primary cells relative to control GFP oligonucleotide” value is “neither U3 sense nor antisense oligonucleotides had an effect on the proliferation of human primary cells” in data set [9] and “did not significantly alter cell proliferation of human primary cells, relative to control GFP oligonucleotide” in data set [9] (listed as ERV-9 U3 sense oligonucleotide).
